In ChEMBL document CHEMBL1201862, “PubChem BioAssay data set” (2004):
The source made the active and inactive calls.

What was measured:
Bcl-2-like protein 10 = Bcl-2-like protein 10 (Homo sapiens, UniProt Q9HD36); test: displacers of TR3 peptide from Bcl-B, primary screen, selectivity assay for Bfl-1 inhibitor project, biochemical, fluorescence polarization, FITC-TR3 peptide (AID 748);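 further: fluorescence polarization from a fluorescein-labelled TR3 peptide binding purified Bcl-B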
[1] = Artemis endonuclease inhibitor potency, dose response, biochemical, fluorescence intensity (AID 720701); format: functional;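 further: Artemis endonuclease enzyme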
[2] = biological target: Induced myeloid leukemia cell differentiation protein Mcl-1 (Homo sapiens, UniProt Q07820); format: functional
[3] = cytotoxicity in MIN6 insulinoma cells, dose response, cytotoxicity control, cell-based, mouse insulinoma (AID 2122); format: functional;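 further: confirmatory high-throughput counterscreen run to flag cytotoxic compounds; mouse MIN-6 beta cells carrying an insulin promoter eGFP reporter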
[4] = biological target: E3 ubiquitin-protein ligase UHRF1 (Homo sapiens, UniProt Q96T88); test: Counterscreen for inhibitors of 5-meCpG-binding domain protein 2 (MBD2): TRFRET-based biochemical high throughput dose response assay to identify inhibitors of binding of ubiquitin-like with PHD and ring finger domains 1 (UHRF1) to methylated oligonucleotide.
[5] = insulin promoter down-regulators in MIN6 cells, imaging, high-content screening, mouse beta cells (AID 1628); format: functional
INS1 = test: beta cell apoptosis inhibitors, cytokine rescue, dose response, luminescence, retest (AID 449756); format: functional, cell-based; settings: Rattus norvegicus;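 further: cell death triggered by IL-1 beta plus TNF-alpha plus IFN-gamma mixture; protective hits raise ATP signal compared with cytokine alone wells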
Caspase-6 = Caspase-6 (Homo sapiens, UniProt P55212); test: human caspase-6 inhibitors, dose response, biochemical, VEID-R110 fluorescence, cherry-pick (AID 720632)
Aminopeptidase N = biological target: T1, Aminopeptidase N (Plasmodium falciparum FcB1/Columbia, UniProt O96935); test: P. falciparum M1AAP inhibitors, biochemical, fluorogenic H-Leu-NHMec substrate, 1536-well (AID 1445); set-up: species or system Plasmodium falciparum 3D7, 3D7
T1 sequence (O96935 whole entry): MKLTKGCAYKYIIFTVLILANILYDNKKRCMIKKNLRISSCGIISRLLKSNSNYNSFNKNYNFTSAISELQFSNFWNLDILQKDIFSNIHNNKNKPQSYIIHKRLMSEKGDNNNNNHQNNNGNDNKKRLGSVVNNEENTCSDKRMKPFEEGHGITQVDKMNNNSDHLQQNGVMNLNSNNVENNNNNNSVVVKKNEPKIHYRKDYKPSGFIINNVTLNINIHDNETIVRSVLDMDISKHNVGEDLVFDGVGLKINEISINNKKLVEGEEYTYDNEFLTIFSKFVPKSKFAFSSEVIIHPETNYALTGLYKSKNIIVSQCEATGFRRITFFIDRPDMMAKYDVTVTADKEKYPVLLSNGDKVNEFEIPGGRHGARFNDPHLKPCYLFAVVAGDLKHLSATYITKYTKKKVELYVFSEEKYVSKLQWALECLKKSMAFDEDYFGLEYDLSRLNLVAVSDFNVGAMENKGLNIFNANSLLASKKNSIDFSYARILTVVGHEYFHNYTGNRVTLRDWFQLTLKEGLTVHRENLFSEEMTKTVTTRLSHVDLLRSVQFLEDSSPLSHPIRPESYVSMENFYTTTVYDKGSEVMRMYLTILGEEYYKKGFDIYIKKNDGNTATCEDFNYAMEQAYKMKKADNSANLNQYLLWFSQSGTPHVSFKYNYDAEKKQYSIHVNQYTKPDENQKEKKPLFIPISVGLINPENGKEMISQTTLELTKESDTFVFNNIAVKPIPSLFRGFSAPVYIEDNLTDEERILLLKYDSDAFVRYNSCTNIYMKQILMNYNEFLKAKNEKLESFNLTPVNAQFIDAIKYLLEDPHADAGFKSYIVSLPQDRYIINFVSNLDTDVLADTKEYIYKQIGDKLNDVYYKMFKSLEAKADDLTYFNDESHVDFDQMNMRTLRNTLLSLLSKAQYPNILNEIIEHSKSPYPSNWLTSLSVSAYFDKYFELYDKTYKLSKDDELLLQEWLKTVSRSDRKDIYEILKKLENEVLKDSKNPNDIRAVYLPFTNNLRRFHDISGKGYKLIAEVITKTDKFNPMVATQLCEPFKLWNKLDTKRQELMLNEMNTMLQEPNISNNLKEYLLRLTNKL

[6] = biological target: T2, Long-chain-fatty-acid--AMP ligase FadD28 (Mycobacterium tuberculosis, UniProt P9WQ59); test: Fluorescence polarization aasay to screen for inhibitors that compete for the binding of FadD28 to a bisubstrate Measured in Biochemical System Using Plate Reader - 2147-01_Inhibitor_Dose_CherryPick_Activity.; format: functional, Mycobacterium tuberculosis H37Rv
T2 sequence (P9WQ59 whole entry): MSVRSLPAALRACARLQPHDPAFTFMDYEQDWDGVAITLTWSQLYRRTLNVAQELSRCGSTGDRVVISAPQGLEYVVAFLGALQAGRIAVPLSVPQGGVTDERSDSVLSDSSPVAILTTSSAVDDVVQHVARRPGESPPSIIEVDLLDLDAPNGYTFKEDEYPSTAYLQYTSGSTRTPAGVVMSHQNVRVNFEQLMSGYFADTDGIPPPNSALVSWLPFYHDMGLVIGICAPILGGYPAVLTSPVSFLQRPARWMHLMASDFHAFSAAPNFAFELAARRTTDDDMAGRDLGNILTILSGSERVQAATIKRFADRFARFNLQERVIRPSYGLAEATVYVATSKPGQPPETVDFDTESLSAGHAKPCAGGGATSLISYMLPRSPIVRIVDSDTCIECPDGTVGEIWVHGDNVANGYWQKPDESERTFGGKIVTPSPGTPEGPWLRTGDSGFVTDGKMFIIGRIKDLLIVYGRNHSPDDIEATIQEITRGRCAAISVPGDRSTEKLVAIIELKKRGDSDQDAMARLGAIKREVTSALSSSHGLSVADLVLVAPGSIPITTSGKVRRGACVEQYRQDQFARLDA

[7] = biological target: E3 ubiquitin-protein ligase XIAP (Homo sapiens, UniProt P98170); test: Counter Screen using XIAP-Bir3 for Chemical Antagonists of Bir1/2 domains of IAP-family anti-apoptotic proteins. [Related pubchem assays (depositor defined):AID1018, AID1449, AID1514, AID1638, AID1749, AID1750, AID488957, AID488963]
[8] = biological target: Bifunctional protein GlmU (Mycobacterium tuberculosis, UniProt P9WMN3); test: Inhibitors of Mycobacterial Glucosamine-1-phosphate acetyl transferase (GlmU). Secondary screen.; set-up: species or system Mycobacterium tuberculosis H37Rv
Genome polyprotein = Genome polyprotein (dengue virus type 2, UniProt P29990); test: Dengue-2 NS5 methyltransferase inhibitors, primary screen, biochemical, confirmation dose response (AID 588689); format: functional
[9] = HepG2 cell cytotoxicity, dose response, cytotoxicity control for Shn3 inhibitor project, CellTiter-Glo, cherry-picked (AID 624134); format: functional, cell-based
cells [10] = format: functional, cell-based
[11] = Shn3 3'UTR reporter inhibitors, dose response, cell-based, Clone20 osteoblasts, firefly luciferase, cherry-picked (AID 624132); format: functional;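 further: firefly luciferase luminescence from reporter carrying the Shn3 3'UTR in osteoblasts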
[12] = cytotoxicity in OVCAR4 cells, dose response, cytotoxicity control for PAX8 inhibitor project, cell-based, plate reader, dry powder, SA11 (AID 743150); format: functional; settings: OVCAR-4
[13] = cytotoxicity in COV434 cells, dose response, cytotoxicity control for PAX8 inhibitor project, cell-based, plate reader, dry powder, SA7 (AID 743145); format: functional
Streptococcus = test: Group A Streptococcus viability loss, dose response, counter-screen for streptokinase expression inhibitor project, luminescence, BacTiterGlo (AID 1915); format: functional, organism-based;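 further: potency for reduction of bacterial viability or growth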
cells [14] = format: functional, cell-based; remark: listed apart in the source
[15] = biological target: T3, Probable nicotinate-nucleotide adenylyltransferase (Staphylococcus aureus (strain N315), UniProt P65502); format: functional, Staphylococcus aureus subsp. aureus N315;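 on IC50 Mean: confirmatory dose-response retesting of NadD inhibitor hits first found in an ultra-high-throughput screen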
[16] = PAX5 activity inhibitors, dose response, selectivity assay for PAX8 inhibitor project, cell-based, plate reader, dry powder samples (AID 743047); format: functional;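 further: HEK293 cells carrying a Pax5 driven CD19 promoter luciferase reporter; potency of inhibitors that lower reporter luminescence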
[17] = test system: Streptococcus sp. 'group A'; test: growth inhibition of control SK(-) GAS strain, dose response, counter-screen for streptokinase expression inhibitor project, luminescence, kanamycin, BacTiterGlo, confirmation (AID 1900); format: functional, organism-based
Paired box protein Pax-8 = Paired box protein Pax-8 (Homo sapiens, UniProt Q06710); test: inhibitors of PAX8-driven TPO luciferase reporter, dose response, RMG-I cells, cherry-pick (AID 687027); format: functional, cell-based;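 further: luciferase reporter driven by Pax8 target thyroperoxidase promoter measured by SteadyGlo luminescence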
[18] = cytotoxicity in OV-90 ovarian cancer cells, dose response, PAX8 inhibitor project, cell-based, plate reader, dry powder, SA8 (AID 743149); format: functional
[19] = NIH:OVCAR-3 ovarian cancer cell cytotoxicity, dose response, PAX8 inhibitor project, plate reader, dry powder samples (AID 743044); format: functional, cell-based
[20] = control 3'UTR Renilla luciferase suppression, dose response, counter-screen for Shn3 inhibitor project, cell-based, Clone20-Shn3RL, cherry-picked (AID 624133); format: functional
[21] = cytotoxicity dependent on PAX8, dose response, cell-based, plate reader, dry powder (AID 743049); format: functional
[22] = cytotoxicity toward NIH3T3 fibroblasts, dose response, counter-screen, cell-based, ATP luminescence, mouse fibroblasts (AID 2010); format: functional;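 further: cells exposed to compound for about 90 hours before reading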
[23] = biological target: T3, Probable nicotinate-nucleotide adenylyltransferase; format: functional, Staphylococcus aureus subsp. aureus N315; settings: read-out: IC50_Mean
[24] = cytotoxicity in COV362 ovarian cancer cells, dose response, cytotoxicity control for PAX8 inhibitor project, cell-based, plate reader, dry powder, SA12 (AID 743144); format: functional
[25] = inhibitors of intracellular T. cruzi replication, confirmation, NIH3T3 host cells, beta-gal luminescence (AID 2044); format: functional, cell-based;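 further: intracellular parasites grown in NIH/3T3 mouse fibroblasts as host cells; luminescent beta-galactosidase reporter signal from transgenic T. cruzi replicating inside host cells; inhibitors lower the luminescence signal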
[26] = IGROV1 ovarian cancer cell cytotoxicity, dose response, PAX8 inhibitor project, plate reader, dry powder samples (AID 743043); format: functional, cell-based; settings: IGROV-1
[27] = biological target: T4, Type-1 angiotensin II receptor (Homo sapiens, UniProt P30556); test: AT1 receptor agonists, dose response, selectivity assay for APJ receptor agonist project, cell-based, uHTS hits (AID 488865); format: functional;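 further: beta-arrestin recruitment to AT1 measured by enzyme fragment complementation luminescence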
T4 sequence (P30556 whole entry): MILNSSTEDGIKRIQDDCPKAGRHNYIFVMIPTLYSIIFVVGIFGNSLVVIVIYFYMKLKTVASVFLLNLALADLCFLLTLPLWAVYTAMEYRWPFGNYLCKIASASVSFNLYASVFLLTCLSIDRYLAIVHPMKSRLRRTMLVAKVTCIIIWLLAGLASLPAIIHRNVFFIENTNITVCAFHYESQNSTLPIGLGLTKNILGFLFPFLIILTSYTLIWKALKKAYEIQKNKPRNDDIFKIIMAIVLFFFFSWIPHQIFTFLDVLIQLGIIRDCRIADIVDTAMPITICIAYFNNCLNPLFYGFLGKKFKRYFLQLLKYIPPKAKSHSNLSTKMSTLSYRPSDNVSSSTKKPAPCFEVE

[28] = PAX2 cell-based inhibition, dose response, selectivity assay for PAX8 inhibitor project, plate reader, dry powder samples (AID 743048); format: functional;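 further: HEK293 cells carrying a WT1 promoter luciferase reporter driven by expressed Pax2; potency is for inhibition of Pax2 driven reporter signal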
[29] = A2780 ovarian cancer cell cytotoxicity, dose response, cytotoxicity control, plate reader, dry powder samples (AID 743046); format: functional, cell-based
[30] = luciferase signal loss, tTA control fusion, HeLa F-luc tTA cells, dry powder, counter-screen for HIV Env fusion inhibitor project, dose response (AID 687021); format: functional, cell-based
[31] = HIV Env cell-cell fusion inhibitors, dose response, HIV entry, plate reader, dry powder (AID 687023); format: functional, cell-based

Chain of Induced myeloid leukemia cell differentiation protein Mcl-1 (Q07820 whole entry): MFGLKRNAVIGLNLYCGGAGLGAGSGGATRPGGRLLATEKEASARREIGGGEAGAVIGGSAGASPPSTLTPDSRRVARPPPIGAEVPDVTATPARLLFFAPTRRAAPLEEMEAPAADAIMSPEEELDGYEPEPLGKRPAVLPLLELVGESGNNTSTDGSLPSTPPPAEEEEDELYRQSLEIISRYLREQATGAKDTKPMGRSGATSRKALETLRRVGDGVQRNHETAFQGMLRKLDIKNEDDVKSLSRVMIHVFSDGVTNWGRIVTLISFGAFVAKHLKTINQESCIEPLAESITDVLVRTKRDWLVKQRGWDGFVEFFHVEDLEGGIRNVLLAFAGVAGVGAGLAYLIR
T3 sequence (P65502 whole entry): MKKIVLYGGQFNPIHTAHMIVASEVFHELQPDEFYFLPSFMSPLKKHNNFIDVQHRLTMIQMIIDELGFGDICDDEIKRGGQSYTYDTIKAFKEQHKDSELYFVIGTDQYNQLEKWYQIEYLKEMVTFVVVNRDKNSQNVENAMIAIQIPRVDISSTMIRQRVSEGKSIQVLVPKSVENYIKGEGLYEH
Chain of Bifunctional protein GlmU (P9WMN3 whole entry): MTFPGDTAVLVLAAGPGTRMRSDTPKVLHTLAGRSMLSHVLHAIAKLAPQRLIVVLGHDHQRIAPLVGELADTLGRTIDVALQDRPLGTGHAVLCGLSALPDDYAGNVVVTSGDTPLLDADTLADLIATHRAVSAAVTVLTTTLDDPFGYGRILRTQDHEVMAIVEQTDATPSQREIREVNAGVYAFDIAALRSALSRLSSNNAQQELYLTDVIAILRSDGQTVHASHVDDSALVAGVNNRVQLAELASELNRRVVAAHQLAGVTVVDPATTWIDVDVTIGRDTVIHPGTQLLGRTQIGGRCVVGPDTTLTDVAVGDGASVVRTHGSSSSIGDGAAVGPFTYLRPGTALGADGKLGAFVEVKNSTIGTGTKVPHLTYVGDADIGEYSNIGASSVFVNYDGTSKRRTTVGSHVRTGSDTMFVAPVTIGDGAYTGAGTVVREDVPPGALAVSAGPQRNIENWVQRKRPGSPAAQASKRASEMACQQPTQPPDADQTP
Chain of E3 ubiquitin-protein ligase UHRF1 (Q96T88 whole entry, the tested form may be a part): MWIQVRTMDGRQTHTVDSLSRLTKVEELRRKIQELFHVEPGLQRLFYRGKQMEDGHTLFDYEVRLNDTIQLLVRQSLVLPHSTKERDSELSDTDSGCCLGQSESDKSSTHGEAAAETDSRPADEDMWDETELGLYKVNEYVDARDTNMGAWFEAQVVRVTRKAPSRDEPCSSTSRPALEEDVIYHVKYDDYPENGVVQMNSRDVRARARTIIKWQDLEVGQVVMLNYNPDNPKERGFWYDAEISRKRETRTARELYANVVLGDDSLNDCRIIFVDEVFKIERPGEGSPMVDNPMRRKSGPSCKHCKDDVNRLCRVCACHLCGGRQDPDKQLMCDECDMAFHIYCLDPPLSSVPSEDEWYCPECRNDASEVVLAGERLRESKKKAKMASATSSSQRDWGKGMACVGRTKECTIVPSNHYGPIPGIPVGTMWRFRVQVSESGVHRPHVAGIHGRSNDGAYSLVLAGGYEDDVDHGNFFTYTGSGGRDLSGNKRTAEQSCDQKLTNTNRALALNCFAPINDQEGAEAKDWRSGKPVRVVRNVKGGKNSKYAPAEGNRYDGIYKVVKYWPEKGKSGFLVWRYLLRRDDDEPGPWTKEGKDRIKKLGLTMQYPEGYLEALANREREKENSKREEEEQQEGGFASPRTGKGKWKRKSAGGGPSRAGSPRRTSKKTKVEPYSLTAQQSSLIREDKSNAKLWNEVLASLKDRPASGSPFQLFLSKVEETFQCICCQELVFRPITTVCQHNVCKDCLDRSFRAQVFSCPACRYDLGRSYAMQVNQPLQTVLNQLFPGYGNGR
Chain of Paired box protein Pax-8 (Q06710 whole entry): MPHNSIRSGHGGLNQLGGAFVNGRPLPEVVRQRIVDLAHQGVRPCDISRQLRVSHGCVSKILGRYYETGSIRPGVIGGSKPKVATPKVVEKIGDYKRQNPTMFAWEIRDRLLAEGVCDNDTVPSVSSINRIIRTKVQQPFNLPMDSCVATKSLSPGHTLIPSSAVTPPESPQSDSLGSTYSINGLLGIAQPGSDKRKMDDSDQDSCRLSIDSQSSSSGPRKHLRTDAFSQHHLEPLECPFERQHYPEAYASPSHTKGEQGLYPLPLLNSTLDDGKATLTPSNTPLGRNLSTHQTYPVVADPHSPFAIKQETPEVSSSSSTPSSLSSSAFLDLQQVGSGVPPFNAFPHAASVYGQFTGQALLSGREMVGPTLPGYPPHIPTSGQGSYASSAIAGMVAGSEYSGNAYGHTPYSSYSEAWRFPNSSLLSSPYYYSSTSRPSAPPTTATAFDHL
Chain of Bcl-2-like protein 10 (Q9HD36 whole entry): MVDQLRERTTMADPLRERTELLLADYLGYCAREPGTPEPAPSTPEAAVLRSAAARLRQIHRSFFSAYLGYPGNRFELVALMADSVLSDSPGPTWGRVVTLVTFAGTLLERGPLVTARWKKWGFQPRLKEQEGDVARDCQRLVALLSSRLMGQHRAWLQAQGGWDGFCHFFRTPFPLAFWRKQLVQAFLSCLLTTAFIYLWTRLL
Chain of E3 ubiquitin-protein ligase XIAP (P98170 whole entry): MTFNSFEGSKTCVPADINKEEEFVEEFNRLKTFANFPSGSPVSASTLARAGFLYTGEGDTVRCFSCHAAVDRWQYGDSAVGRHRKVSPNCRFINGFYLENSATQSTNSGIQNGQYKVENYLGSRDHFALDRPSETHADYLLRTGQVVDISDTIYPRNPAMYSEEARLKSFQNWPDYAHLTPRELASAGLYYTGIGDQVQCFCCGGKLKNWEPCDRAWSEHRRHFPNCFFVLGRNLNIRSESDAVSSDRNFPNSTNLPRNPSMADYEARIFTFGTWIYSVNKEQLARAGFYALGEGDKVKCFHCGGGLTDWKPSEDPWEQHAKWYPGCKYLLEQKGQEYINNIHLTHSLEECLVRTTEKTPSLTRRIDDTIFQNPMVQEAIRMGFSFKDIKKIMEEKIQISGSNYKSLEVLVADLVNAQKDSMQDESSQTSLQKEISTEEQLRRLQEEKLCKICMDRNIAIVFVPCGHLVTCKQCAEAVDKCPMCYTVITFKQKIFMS
Chain of Caspase-6 (P55212 24-179 limits assumed): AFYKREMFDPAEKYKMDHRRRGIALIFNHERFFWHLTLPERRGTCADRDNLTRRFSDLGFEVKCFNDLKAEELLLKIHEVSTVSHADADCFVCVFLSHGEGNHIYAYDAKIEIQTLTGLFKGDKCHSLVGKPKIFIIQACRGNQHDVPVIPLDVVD
Chain of Caspase-6 (P55212 194-293 limits assumed): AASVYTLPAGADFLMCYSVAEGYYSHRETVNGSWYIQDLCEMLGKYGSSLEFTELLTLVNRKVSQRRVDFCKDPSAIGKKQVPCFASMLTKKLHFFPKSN
Chain of Genome polyprotein (P29990 2492-3391 limits assumed): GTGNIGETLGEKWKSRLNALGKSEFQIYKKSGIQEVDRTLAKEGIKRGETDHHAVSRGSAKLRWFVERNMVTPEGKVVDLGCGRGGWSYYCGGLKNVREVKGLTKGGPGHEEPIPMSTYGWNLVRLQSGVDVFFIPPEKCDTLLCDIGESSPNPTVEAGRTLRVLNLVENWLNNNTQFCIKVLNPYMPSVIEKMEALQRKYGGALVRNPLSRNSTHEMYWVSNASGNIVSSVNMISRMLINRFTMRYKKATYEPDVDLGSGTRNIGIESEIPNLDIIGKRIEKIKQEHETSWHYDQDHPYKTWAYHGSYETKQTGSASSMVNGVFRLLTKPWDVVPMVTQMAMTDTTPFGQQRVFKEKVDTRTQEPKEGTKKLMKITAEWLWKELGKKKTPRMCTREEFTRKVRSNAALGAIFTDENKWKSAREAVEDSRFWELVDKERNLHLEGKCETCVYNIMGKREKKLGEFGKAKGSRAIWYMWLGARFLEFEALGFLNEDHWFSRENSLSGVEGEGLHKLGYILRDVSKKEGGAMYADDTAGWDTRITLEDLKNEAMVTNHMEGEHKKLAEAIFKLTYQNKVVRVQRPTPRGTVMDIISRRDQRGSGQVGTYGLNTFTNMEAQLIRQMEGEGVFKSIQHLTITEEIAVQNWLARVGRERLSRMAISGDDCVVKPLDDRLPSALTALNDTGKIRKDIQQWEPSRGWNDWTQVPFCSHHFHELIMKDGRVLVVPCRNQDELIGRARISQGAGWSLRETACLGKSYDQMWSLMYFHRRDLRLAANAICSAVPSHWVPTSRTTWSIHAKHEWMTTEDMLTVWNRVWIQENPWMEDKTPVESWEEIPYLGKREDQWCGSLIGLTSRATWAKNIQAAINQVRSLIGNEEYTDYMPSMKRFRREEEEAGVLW

COc1ccc(C(=O)Nc2ccc(N3CCCC3)cc2)cc1
IC50 (Bcl-2-like protein 10): 41.9 µM (active) | IC50 [1]: 16.2 µM (active) | IC50 [2]: 3.44 µM (active)

[O-][Cl+3]([O-])([O-])[O-].c1ccc(-c2cc(-c3ccccc3)[n+](-c3ccccc3)c(-c3ccccc3)c2)cc1
IC50 [3]: 1.77 µM (active) | IC50 [4]: 14.3 µM (inactive) | IC50 [5]: 1.06 µM (active) | AC50 (INS1): 2.59 µM (active)

O=C(Nc1cccc(Oc2ccc(C(=O)O)c(C(=O)O)c2)c1)c1ccc(-c2ccccc2)cc1
IC50 [2]: 4.44 µM (active) | AC50 (Caspase-6): 15.7 µM (active) | IC50 (Aminopeptidase N): 44.7 µM (active) | AC50 [6]: 82.4 µM (active) | IC50 [7]: > 20 µM (inactive) | IC50 [8]: 147 µM (active) | IC50 (Genome polyprotein): 20.5 µM (active)

Cc1cc(C)c2sc(NNC(=O)c3ccc(S(=O)(=O)N4CCc5ccccc5C4)cc3)nc2c1
AC50 [9]: 33.1 µM (active) | EC50 (cells [10]): > 350 µM (not active) | AC50 [11]: 1.8 µM (active) | AC50 [12]: 43.4 µM (active) | AC50 [13]: 12.4 µM (active) | EC50 (Streptococcus): 3.44 µM (active) | EC50 (cells [14]): 41.8 µM (active) | IC50 [15]: 7.44 µM (active) | AC50 [16]: 4.85 µM (active) | EC50 [17]: 1.29 µM (active) | AC50 (Paired box protein Pax-8): 2.27 µM (active) | AC50 [18]: 20.8 µM (active) | AC50 [19]: 6.31 µM (active) | AC50 [20]: 1.35 µM (active) | AC50 [21]: 10.3 µM (active) | EC50 [22]: 1.82 µM (active) | IC50 [23]: 42.2 µM (active) | AC50 [24]: 19.2 µM (active) | EC50 [25]: 1.22 µM (active) | AC50 (INS1): 1.36 µM (active) | AC50 [26]: 8.92 µM (active) | EC50 [27]: > 100 µM (inactive) | AC50 [28]: 3.1 µM (active) | AC50 [29]: 6.67 µM (active)

CCOc1ccc(S(=O)(=O)NCc2ccccn2)cc1
AC50 [30]: > 70 µM (inactive) | AC50 [31]: > 70 µM (inactive)
